Results as given in patent US20250345378A1 (priority 2022, published 2025).
Read-outs that look alike come from different tables or passages of the source.

What was measured:
[1] = test system: 88 urinary tract infection E. coli isolates; type: cell-based, Escherichia coli; conditions: for Host Range % on MDR Subset (n = 21), Combination: Antibiotic + LBP-EC01 v.2 / Host Range % on all Strains (n = 88), Combination: Antibiotic + LBP-EC01 v.2 / Host Range % on Beta-lactam-Resistant Subset (n = 31), Combination: Antibiotic + LBP-EC01 v.2: antibiotic combined with LBP-EC01 v.2; for Host Range % on all Strains (n = 88), Combination: Antibiotic + CK618 v.2: antibiotic at breakpoint concentration plus cocktail 1 × 10^6 PFU/ml per bacteriophage
Experimental: (§1) Phage cocktail CK618 was tested in combination with and alongside antibiotics against two isolate panels. The first assay used a panel of 88 contemporaneous urinary tract infection (UTI) isolates from North America, Europe, Latin America, and Asia. […] The second assay used a panel made up of a 300-strain clinical isolate panel (Table 14) with an additional 4 strains of interest. […] Four of the same SOC antibiotics tested against the 88-isolate panel were tested against this panel. The non-SOC antibiotics were not included due to their limited use in clinical settings, and nitrofurantoin was not included due to the low probability of resistance to this drug.
(§2) For both isolate panels, antibiotic concentrations tested were determined by using Clinical and Laboratory Standards Institute (CLSI) or European Committee on Antimicrobial Susceptibility Testing (EUCAST) breakpoints at concentrations that kill susceptible isolates but allow intermediate or resistant isolates to grow in the standard AST microdilution assay (Table 17).
(§3) The composition of the proposed Phase 2 CRISPR-enhanced bacteriophage (CRISPR-phage, hereafter termed ‘crPhage’) cocktail (CK618) has been updated from the CK570 to include six bacteriophages as compared to three bacteriophages in CK570. Bacteriophage cocktail CK618, was prepared such that all bacteriophages had equivalent titers in the final cocktail. The cocktail was then mixed with bacteria to obtain final titers of 1×10^6 plaque-forming unit (PFU)/mL/phage for the cocktail and 1×10^5 colony-forming unit (CFU)/mL for the bacteria, resulting in a multiplicity of infection (MOI) of 10 for each bacteriophage in a sample. Briefly, 5 μl of each sample (CK618 alone, CK618 and antibiotics, antibiotics alone, or medium alone) was added to 5 μl of optical density (OD)-normalized bacterial isolate and 40 μl LB medium. Reactions were incubated at 37° C. with shaking and OD measurements were taken each hour for 20 hours.
(§4) Host range percentage is the percent of isolates that responded to treatment of antibiotics or CK618. In the case of the 88-isolate panel, results were analyzed on the complete panel as well as the subset of classified as multidrug-resistant (MDR) (n=21) and beta-lactam-resistant (n=31).
(§5) The first assay used a panel of 88 contemporaneous isolates. Twenty-one of those strains are classified as MDR, with resistance to 3 or more antibiotic classes. […] The second assay used the panel made up of a 300-strain clinical isolate panel with an additional 4 strains of interest.
(§6) Antibiotic concentrations tested were determined by using CLSI or EUCAST breakpoints at concentrations that kill susceptible strains but allow intermediate or resistant strains to grow in the standard AST microdilution assay (Table 27). LBP-EC01 v.2 was combined with bacteria resulting in a MO of 10 for each bacteriophage in a sample. In the case of the 88-isolate panel, results were analyzed on the complete panel as well as the subset of isolates classified as multidrug-resistant (MDR) (n=21) and beta-lactam-resistant (n=31).

[2] = test system: 304 E. coli clinical isolates; type: cell-based, Escherichia coli; conditions: 304-isolate panel
Experimental: as §1, §2, §3, §4, §5, §6

[3] = 88-isolate panel, MDR subset, single agent
[4] = 88-isolate panel, all strains, single agent
[5] = 88-isolate panel, beta-lactam-resistant subset
[6] = 88-isolate panel, beta-lactam-resistant subset, single agent
[7] = antibiotic at breakpoint concentration (Table 17), cocktail 1 × 10^6 PFU/ml per bacteriophage, MOI 10

Compound	Host Range % on Beta-lactam-Resistant Subset (n = 31), Combination: Antibiotic + CK618 v.2 ([1]; 88-isolate panel) [%]	Host Range % on Beta-lactam-Resistant Subset (n = 31), Single agent treatment ([1]; 88-isolate panel) [%]	Host Range % on MDR Subset (n = 21), Combination: Antibiotic + CK618 v.2 ([1]; 88-isolate panel) [%]	Host Range % on MDR Subset (n = 21), Single agent treatment ([1]; 88-isolate panel) [%]	Host Range % on MDR Subset (n = 21), Combination: Antibiotic + LBP-EC01 v.2 ([1]; 88-isolate panel, MDR subset) [%]	Host Range % on MDR Subset (n = 21), Single agent treatment [1, 3] [%]	Host Range % on all Strains (n = 88), Combination: Antibiotic + LBP-EC01 v.2 ([1]; 88-isolate panel, all strains) [%]	Host Range % on all Strains (n = 88), Single agent treatment [1, 4] [%]	Host Range % on Beta-lactam-Resistant Subset (n = 31), Combination: Antibiotic + LBP-EC01 v.2 [1, 5] [%]	Host Range % on Beta-lactam-Resistant Subset (n = 31), Single agent treatment [1, 6] [%]	Host Range % on all Strains (n = 88), Single agent treatment [1, 7] [%]	Host Range % on all Strains (n = 88), Combination: Antibiotic + CK618 v.2 [1] [%]	Host range % on MDR subset (n = 93), Combination: Antibiotic + LBP-CK618 [2] [%]	Host range % on MDR subset (n = 93), Single agent treatment [2] [%]	Host range % on beta-lactam-resistant subset (n = 91), Combination: Antibiotic + LBP-CK618 [2] [%]	Host range % on beta-lactam-resistant subset (n = 91), Single agent treatment [2] [%]	Host Range % on MDR Subset (n = 93), Combination Antibiotic + LBP-EC01 v.2 ([2]; MDR subset, antibiotic combined with LBP-EC01 v.2) [%]	Host Range % on all Strains (n = 304), Single agent treatment ([2]; all strains, single agent) [%]	Host Range % on Beta-lactam-Resistant Subset (n = 91), Combination: Antibiotic + LBP-EC01 v.2 ([2]; beta-lactam-resistant subset, antibiotic combined with LBP-EC01 v.2) [%]	Host range % on beta-lactam-resistant subset (n = 91), Single agent treatment ([2]; beta-lactam-resistant subset, single agent) [%]
O=C1CN(/N=C/c2ccc([N+](=O)[O-])o2)C(=O)N1 [Nitrofurantoin]	97.8	90.3	98.4	85.7	98.4	85.7	93.9	83.0	97.8	90.3	83.0	93.9	–	–	–	–	–	–	–	–
CC1=C(C(=O)O)N2C(=O)[C@@H](NC(=O)[C@H](N)c3ccccc3)[C@H]2SC1 [Cephalexin]	81.7	11.8	76.2	14.3	76.2	14.3	87.9	49.2	81.7	11.8	49.2	87.9	79.6	24.7	79.1	8.8	79.6	57.6	79.1	8.8
